Assays:
Type in all cases: cell-based
MHH-CALL-4 cells = assay: Cytotoxicity assay (resazurin, 72 hours); design: AUC: unit not given beside the values; conditions: for EC50: MHHCALL4, resazurin; for AUC: area under the dose-response curve
Procedure: Cytotoxicity assay: MHH-CALL-4 cells were maintained in RPMI1640 medium (Invitrogen) supplemented with 10% FBS (Hyclone), Penicillin/Streptomycin (100 units/mL) and Glutamine (100 μM). 2×10^5 cells were seeded in 100 μl medium/well in 96 well assay plates (Corning 3603). Assays were performed in triplicate; compounds to be screened were added to assay plates from DMSO stock solutions by pin transfer using 50SS pins (V&P Scientific). The assay plates incubated at 37° C. in 5% CO2 for 72 hours. Cells were then incubated for four hours with resazurin (Sigma) solution and read on a Synergy HT plate reader (Biotek, Winooski, VT). High-throughput assay data was analyzed using our in-house Robust Interpretation of Screening Experiments (RISE) application written in Pipeline Pilot (Biovia, v. 17.2.0) and the R program (R Core Team, 2013). All the AUC (area under the dose-response curve) per compound calculated from its dose response curve by RISE protocol. Selected data were plotted and analyzed by GraphPad Prism software v7 using non-linear regression curve fitting.

GSPT1 = target: T1, GSPT1 (Homo sapiens, UniProt P15170); assay: Western blot assay, GSPT1 neosubstrate degradation; conditions: MHH-CALL-4 cells, vehicle control = 100%; for remaining activity at 0.1 µM: MHHCALL4, 100 nM, 24 h
T1 construct: endogenous in cells; host or cells: MHH-CALL-4
Procedure: (§1) Western blot assay: MHH-CALL-4 Cells were washed twice with ice-cold PBS and lysed in RIPA lysis buffer (Sigma) freshly supplemented with Halt™ Protease Inhibitor Cocktail (ThermoFisher) for 15 minutes on ice. The cell pellet was removed by centrifugation at 13,000 g at 4° C. for 15 minutes. Protein concentration was measured by BCA assay (Thermo Fisher Scientific). Proteins were denatured in NuPAGE LDS 4× sample buffer supplemented with reducing agents (Invitrogen). Typically, 10-20 μg of total protein was loaded per lane on a 4%-12% NUPAGE Bis-Tris gradient gel (Invitrogen) and analyzed by standard immunoblotting and imaged using Li—COR Odyssey CLx (LI-COR Biotechnology, Lincoln, NE). To access the protein degradation, the signal of target protein was normalized by the signal of ACBT and the signal of vehicle control was set as 100%. Primary antibodies used were: JAK1 (Cell Signaling #3332S), JAK2 (#3230S), JAK3 (#8827S), TYK2 (#9312S), GSPT1 (#14980S), CRBN (#71810S), IKZF1 (Santa Cruz Biotechnology, SC-398265) and ACBT (Santa Cruz Biotechnology, SC-47778).

JAK2 = assay: Western blot assay, JAK2 protein degradation; conditions: MHH-CALL-4 cells, vehicle control = 100%
Procedure: as §1

JAK3 = target: T2, JAK3 (Homo sapiens, UniProt P52333); assay: Western blot assay, JAK3 protein degradation; conditions: MHHCALL4; 100 nM, 24 h; MHH-CALL-4 cells; vehicle control = 100%; read-out: Target Protein Degradation (% remaining at 100 nM, 24 h) JAK3
T2 construct: endogenous in cells; host or cells: MHH-CALL-4
T2 sequence (P52333 1-1124): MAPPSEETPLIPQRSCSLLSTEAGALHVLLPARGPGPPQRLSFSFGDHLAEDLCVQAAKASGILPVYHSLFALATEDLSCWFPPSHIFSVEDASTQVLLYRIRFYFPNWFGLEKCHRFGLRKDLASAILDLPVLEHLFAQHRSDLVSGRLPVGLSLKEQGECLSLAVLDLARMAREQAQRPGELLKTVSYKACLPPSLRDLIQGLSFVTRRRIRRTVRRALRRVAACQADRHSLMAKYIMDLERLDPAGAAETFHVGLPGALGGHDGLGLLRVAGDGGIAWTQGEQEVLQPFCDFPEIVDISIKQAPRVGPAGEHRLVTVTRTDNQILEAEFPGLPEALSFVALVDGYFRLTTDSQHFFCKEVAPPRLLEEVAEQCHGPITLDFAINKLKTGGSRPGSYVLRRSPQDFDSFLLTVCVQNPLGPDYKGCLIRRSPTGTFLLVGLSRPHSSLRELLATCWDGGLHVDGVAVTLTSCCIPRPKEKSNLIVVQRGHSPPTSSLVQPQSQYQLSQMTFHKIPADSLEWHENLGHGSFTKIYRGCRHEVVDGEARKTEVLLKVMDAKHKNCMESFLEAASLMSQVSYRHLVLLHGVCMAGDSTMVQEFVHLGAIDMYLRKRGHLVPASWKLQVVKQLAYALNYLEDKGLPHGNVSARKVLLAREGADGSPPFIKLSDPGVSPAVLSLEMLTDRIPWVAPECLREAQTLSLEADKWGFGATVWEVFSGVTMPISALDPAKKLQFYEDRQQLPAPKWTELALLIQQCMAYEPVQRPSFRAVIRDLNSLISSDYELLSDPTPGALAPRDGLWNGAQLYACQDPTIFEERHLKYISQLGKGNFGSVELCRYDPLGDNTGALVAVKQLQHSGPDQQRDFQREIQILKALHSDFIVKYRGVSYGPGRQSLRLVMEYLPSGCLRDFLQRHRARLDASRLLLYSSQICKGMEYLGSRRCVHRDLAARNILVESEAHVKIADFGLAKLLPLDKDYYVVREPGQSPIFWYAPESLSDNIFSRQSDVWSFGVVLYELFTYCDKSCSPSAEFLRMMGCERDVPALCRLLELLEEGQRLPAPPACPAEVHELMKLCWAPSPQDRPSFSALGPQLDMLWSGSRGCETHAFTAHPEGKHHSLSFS
Procedure: as §1

T1 sequence (P15170 whole entry): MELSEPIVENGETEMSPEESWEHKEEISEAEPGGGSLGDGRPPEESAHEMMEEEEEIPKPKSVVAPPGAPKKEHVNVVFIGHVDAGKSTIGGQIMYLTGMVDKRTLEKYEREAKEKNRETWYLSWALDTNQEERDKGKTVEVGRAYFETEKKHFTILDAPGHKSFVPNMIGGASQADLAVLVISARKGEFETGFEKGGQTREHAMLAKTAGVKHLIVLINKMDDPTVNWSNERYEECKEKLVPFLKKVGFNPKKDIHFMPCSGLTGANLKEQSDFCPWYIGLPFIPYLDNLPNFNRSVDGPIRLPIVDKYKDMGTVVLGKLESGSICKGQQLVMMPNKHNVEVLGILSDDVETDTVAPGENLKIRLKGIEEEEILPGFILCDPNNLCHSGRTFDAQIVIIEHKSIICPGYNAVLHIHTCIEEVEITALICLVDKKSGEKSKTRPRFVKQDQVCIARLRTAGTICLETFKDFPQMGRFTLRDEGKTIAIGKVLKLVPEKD

| Compound | EC50 (MHH-CALL-4 cells) | AUC (MHH-CALL-4 cells) | Neosubstrate Degradation (% remaining at 100 nM, 24 h) GSPT1 (GSPT1) | Target Protein Degradation (% remaining at 100 nM, 24 h) JAK2 (JAK2) | remaining activity at 0.1 µM (GSPT1) | remaining activity at 0.1 µM (JAK3) |
| --- | --- | --- | --- | --- | --- | --- |
| CCS(=O)(=O)N1CC(CC#N)(n2cc(-c3nc(Nc4ccc(C(=O)N5CCN(c6ccc(C7CCC(=O)NC7=O)cc6)CC5)cc4)nc4[nH]ccc34)cn2)C1 (stereo not drawn) [Compound 2] | 1 nM | 167 | None | None | – | – |
| CCS(=O)(=O)N1CC(CC#N)(n2cc(-c3nc(Nc4ccc(C(=O)NCCOCCOc5cccc(C6CCC(=O)NC6=O)c5)cc4)nc4[nH]ccc34)cn2)C1 (stereo not drawn) [Compound 9] | 873 nM | 132 | – | – | – | – |
| CCS(=O)(=O)N1CC(CC#N)(n2cc(-c3nc(Nc4ccc(C(=O)NCCOCCOCCOc5ccc(C6CCC(=O)NC6=O)cc5)cc4)nc4[nH]ccc34)cn2)C1 (stereo not drawn) [Compound 12] | > 5000 nM | 116 | – | – | – | – |
| CCS(=O)(=O)N1CC(CC#N)(n2cc(-c3nc(Nc4ccc(C(=O)NCCCCNc5ccc(C6CCC(=O)NC6=O)cc5)cc4)nc4[nH]ccc34)cn2)C1 (stereo not drawn) [Compound 13] | > 5000 nM | 93 | – | – | – | – |
| CCS(=O)(=O)N1CC(CC#N)(n2cc(-c3nc(Nc4ccc(C(=O)NCCCCNC(=O)COc5ccc(C6CCC(=O)NC6=O)cc5)cc4)nc4[nH]ccc34)cn2)C1 (stereo not drawn) [Compound 15] | > 5500 nM | 156 | – | 29 % remaining | 78% | – |
| CCS(=O)(=O)N1CC(CC#N)(n2cc(-c3nc(Nc4ccc(C(=O)NCCCCCNC(=O)COc5ccc(C6CCC(=O)NC6=O)cc5)cc4)nc4[nH]ccc34)cn2)C1 (stereo not drawn) [Compound 16] | > 5700 nM | 136 | – | – | – | – |
| CCS(=O)(=O)C1CC(CC#N)(n2cc(-c3nc(Nc4ccc(C(=O)N5CCN(c6ccc7c(c6)C(=O)N(C6CCC(=O)NC6=O)C7=O)CC5)cc4)nc4[nH]ccc34)cn2)C1 (stereo not drawn) [Compound 21] | 13.9 nM | 118 | – | 53 % remaining | – | – |
| CCCn1cc(-c2nc(Nc3ccc(C(=O)NCCN4CCN(c5cccc6c5C(=O)N(C5CCC(=O)NC5=O)C6=O)CC4)cc3)nc3[nH]ccc23)cn1 (stereo not drawn) [Compound 24] | 83.6 nM | 208 | – | 93 % remaining | 0% | – |
| CCCn1cc(-c2nc(Nc3ccc(C(=O)NCCCN4CCN(c5cccc6c5C(=O)C(C5CCC(=O)NC5=O)C6=O)CC4)cc3)nc3[nH]ccc23)cn1 (stereo not drawn) [Compound 25] | 169 nM | 250 | Medium | None | – | – |
| CCCn1cc(-c2nc(Nc3ccc(C(=O)N4CCN(c5cccc6c5C(=O)N(C5CCC(=O)NC5=O)C6=O)CC4)cc3)nc3[nH]ccc23)cn1 (stereo not drawn) [Compound 26] | 297 nM | 217 | Medium | None | – | – |
| CCS(=O)(=O)N1CC(CC#N)(n2cc(-c3nc(Nc4ccc(C(=O)NCCN5CCC(c6ccc7c(c6)CN(C6CCC(=O)NC6=O)C7=O)CC5)cc4)nc4[nH]ccc34)cn2)C1 (stereo not drawn) [Compound 35, 4-((4-(1-(3-(cyanomethyl)-1-(ethylsulfonyl)azetidin-3-yl)-1H-pyrazol-4-yl)-7H-pyrrolo[2,3-d]pyrimidin-2-yl)amino)-N-(2-(4-(2-(2,6-dioxopiperidin-3-yl)-1-oxoisoindolin-5-yl)piperidin-1-yl)ethyl)benzamide] | 22 nM | 223 | – | 33 % remaining | 116% | 51% |
| CCS(=O)(=O)N1CC(CC#N)(n2cc(-c3nc(Nc4ccc(C(=O)NCCCN5CC6CC5CN6c5ccc(C6CCC(=O)NC6=O)cc5)cc4)nc4[nH]ccc34)cn2)C1 (stereo not drawn) [Compound 48, 4-((4-(1-(3-(cyanomethyl)-1-(ethylsulfonyl)azetidin-3-yl)-1H-pyrazol-4-yl)-7H-pyrrolo[2,3-d]pyrimidin-2-yl)amino)-N-(3-(5-(4-(2,6-dioxopiperidin-3-yl)phenyl)-2,5-diazabicyclo[2.2.1]heptan-2-yl)propyl)benzamide] | 27.3 nM | 80 | – | 76 % remaining | – | – |
| CCS(=O)(=O)N1CC(CC#N)(n2cc(-c3nc(Nc4ccc(C(=O)NCCCN5CCC6(CC5)CCN(c5ccc(C7CCC(=O)NC7=O)cc5)CC6)cc4)nc4[nH]ccc34)cn2)C1 (stereo not drawn) [Compound 51] | 226 nM | 105 | – | 67 % remaining | – | – |
| CCS(=O)(=O)N1CC(CC#N)(n2cc(-c3nc(Nc4ccc(C(=O)N5CC6(C5)CN(c5ccc(C7CCC(=O)NC7=O)cc5)C6)cc4)nc4[nH]ccc34)cn2)C1 (stereo not drawn) [Compound 53, 2-(3-(4-(2-((4-(6-(4-(2,6-dioxopiperidin-3-yl)phenyl)-2,6-diazaspiro[3.3]heptane-2-carbonyl)phenyl)amino)-7H-pyrrolo[2,3-d]pyrimidin-4-yl)-1H-pyrazol-1-yl)-1-(ethylsulfonyl)azetidin-3-yl)acetonitrile] | 1.7 nM | 142 | – | 36 % remaining | 102% | – |
| CCS(=O)(=O)N1CC(CC#N)(n2cc(-c3nc(Nc4ccc(C(=O)NCCCN5CC6CCC5CN6c5ccc(C6CCC(=O)NC6=O)cc5)cc4)nc4[nH]ccc34)cn2)C1 (stereo not drawn) [Compound 54, 4-((4-(1-(3-(cyanomethyl)-1-(ethylsulfonyl)azetidin-3-yl)-1H-pyrazol-4-yl)-7H-pyrrolo[2,3-d]pyrimidin-2-yl)amino)-N-(3-(5-(4-(2,6-dioxopiperidin-3-yl)phenyl)-2,5-diazabicyclo[2.2.2]octan-2-yl)propyl)benzamide] | 6.3 nM | 67 | – | 62 % remaining | 125% | – |
| CCS(=O)(=O)N1CC(CC#N)(n2cc(-c3nc(Nc4ccc(C(=O)NCCCN5CCC6(CCN(c7ccc(C8CCC(=O)NC8=O)cc7)CC6)C5)cc4)nc4[nH]ccc34)cn2)C1 (stereo not drawn) [Compound 56, 4-((4-(1-(3-(cyanomethyl)-1-(ethylsulfonyl)azetidin-3-yl)-1H-pyrazol-4-yl)-7H-pyrrolo[2,3-d]pyrimidin-2-yl)amino)-N-(3-(8-(4-(2,6-dioxopiperidin-3-yl)phenyl)-2,8-diazaspiro[4.5]decan-2-yl)propyl)benzamide] | 2650 nM | 172 | – | 58 % remaining | 102% | – |
